Read-outs that look alike come from different tables or passages of the source.
Target: T1, HIV-1 reverse transcriptase (Human immunodeficiency virus type 1 group M subtype B, UniProt P04585)
T1 construct: purified recombinant HIV-1 reverse transcriptase (RT, EC, 2.7.7.49) obtained by expression in Escherichia Coli; made in house; host or cells: Escherichia coli
Assay: Inhibition of HIV-1 Reverse Transcriptase Enzyme
Assay type: biochemical
Description: The activity of the compounds of the invention as reverse transcriptase inhibitors may be measured using the following assay.
Inhibition of HIV-1 Reverse Transcriptase Enzyme
Using purified recombinant HIV-1 reverse transcriptase (RT, EC, 2.7.7.49) obtained by expression in Escherichia Coli, a 96-well plate assay system is established for assaying a large number of samples using either the Poly(rA)-oligo(dT) Reverse Transcriptase [3H]-SPA enzyme assay system (Amersham NK9020) or the [3H]-flashplate enzyme assay system (NEN-SMP 103) and following the manufacturer's recommendations. The compounds are dissolved in 100% DMSO and diluted with the appropriate buffer to a 5% final DMSO concentration. The inhibitory activity is expressed in percent inhibition relative to DMSO control.

CCc1nn(C)c(Oc2ccccn2)c1Oc1cc(C#N)cc(C#N)c1 [Example 1, 5-[3-Ethyl-1-methyl-5-(pyridin-2-yloxy)-1H-pyrazol4-yloxy]-isophthalonitrile]
IC50 (purified recombinant HIV-1 RT expressed in Escherichia Coli, [3H]-SPA or [3H]-flashplate enzyme assay, 5% final DMSO, read-out: IC50): 5.4 µM

CCc1nn(C)c(Oc2ncc(Oc3ccc(OC)cc3)cn2)c1Oc1cc(C#N)cc(C#N)c1 [Example 6]
IC50: 0.391 µM

From patent US7230025B2, “Pyrazole derivatives” (Pfizer, Inc., priority 2002, dated 2007)
